Assay results taken from ChEMBL document CHEMBL1128103, “Thromboxane modulating agents. 1. Design of 1-[(arylsulfonyl)amino] alkylindole derivatives as dual thromboxane synthase inhibitor/thromboxane receptor antagonists” (Bioorg Med Chem Lett, 1995).
pIC50: −log10 of the molar value.

Experiments:
Thromboxane A2 receptor [1] = molecular target: T1, Thromboxane A2 receptor (Rattus norvegicus, UniProt P34978); test: Compound was tested in vitro for Thromboxane A2 receptor antagonism by inhibiting contraction of rat aorta induced by the stable thromboxane agonist U-46,619; assay type: functional, tissue-based; conditions: read-out: pA2 (converted)
T1 sequence (P34978 whole entry): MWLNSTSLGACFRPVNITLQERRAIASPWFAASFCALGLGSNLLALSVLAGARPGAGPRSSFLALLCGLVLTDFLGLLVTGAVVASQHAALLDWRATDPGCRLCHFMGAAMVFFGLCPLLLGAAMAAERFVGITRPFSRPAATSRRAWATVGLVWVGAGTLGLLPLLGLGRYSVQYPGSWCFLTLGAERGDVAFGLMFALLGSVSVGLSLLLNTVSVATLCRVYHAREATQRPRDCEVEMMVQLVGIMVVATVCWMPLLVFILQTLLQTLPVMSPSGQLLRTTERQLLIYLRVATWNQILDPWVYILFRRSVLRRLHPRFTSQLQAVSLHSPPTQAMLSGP

Thromboxane-A synthase = molecular target: T2, Thromboxane-A synthase (Homo sapiens, UniProt P24557); test: Compound was tested for the ability to inhibit human platelets microsomal Thromboxane A2 synthase
T2 sequence (P24557 whole entry): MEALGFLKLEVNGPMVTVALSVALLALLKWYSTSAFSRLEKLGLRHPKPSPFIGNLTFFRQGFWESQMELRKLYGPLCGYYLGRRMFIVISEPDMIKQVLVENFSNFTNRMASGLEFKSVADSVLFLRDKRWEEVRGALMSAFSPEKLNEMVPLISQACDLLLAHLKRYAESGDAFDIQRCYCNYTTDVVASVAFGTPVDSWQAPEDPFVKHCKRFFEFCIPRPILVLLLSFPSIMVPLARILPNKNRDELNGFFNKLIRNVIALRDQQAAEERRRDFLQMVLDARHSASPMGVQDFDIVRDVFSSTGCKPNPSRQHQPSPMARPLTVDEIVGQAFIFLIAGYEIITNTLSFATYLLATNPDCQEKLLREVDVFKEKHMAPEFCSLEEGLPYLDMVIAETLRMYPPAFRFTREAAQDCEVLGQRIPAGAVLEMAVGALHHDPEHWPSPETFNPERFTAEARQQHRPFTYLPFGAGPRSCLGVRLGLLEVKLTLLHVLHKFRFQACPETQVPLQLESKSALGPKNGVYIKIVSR

Thromboxane A2 receptor [2] = molecular target: T1, Thromboxane A2 receptor; test: Compound was tested in vitro for thromboxane A2 receptor antagonism by inhibiting contraction of rat aorta induced by the stable thromboxane agonist U-46,619; assay type: functional, tissue-based; conditions: read-out: pA2 (converted)
Thromboxane A2 receptor [3] = molecular target: T1, Thromboxane A2 receptor; test: Compound was tested in vitro for Thromboxane A2 receptor antagonism by inhibiting contraction of rat aorta induced by the stable thromboxane agonist U-46,619; […]; assay type: functional, tissue-based; conditions: read-out: pA2 (converted)
[4] = molecular target: T3, Thromboxane-A synthase (Homo sapiens) (UniProt P24557); test: Compound was tested for the ability to inhibit human platelets microsomal Thromboxane A2 synthase at 1 uM concentration
T3 sequence (whole entry): T2 sequence (P24557 whole entry)

| Kb (Thromboxane A2 receptor [1]) [nM] | pIC50 (Thromboxane-A synthase) | Kb (Thromboxane A2 receptor [2]) [nM] | Kb (Thromboxane A2 receptor [3]) [nM] | inhibition [4] [%] | Compound |
| --- | --- | --- | --- | --- | --- |
| – | 7.66 | 60.3 | – | – | Cc1[nH]c2ccc(CCC(=O)O)cc2c1Cc1ccncc1 |
| 1.58 | 7.41 | – | – | – | Cc1c(Cn2ccnc2)c2cc(CCC(=O)O)ccc2n1CCNS(=O)(=O)c1ccc(F)cc1 |
| – | – | 7.59 | – | 42 | O=C(O)CCc1ccc2c(c1)c(Cc1ccncc1)cn2CCNS(=O)(=O)c1ccc(F)cc1 |
| 81.3 | – | – | – | – | O=C(O)COc1ccc(CCNS(=O)(=O)c2ccccc2)cc1 [SULOTROBAN] |
| 2.51 | – | – | – | – | Cc1c(C)n(CCNS(=O)(=O)c2ccc(F)cc2)c2ccc(CCC(=O)O)cc12 |
| – | 7.41 | – | > 1000 | – | Cc1c(Cn2ccnc2)n(CCCCNS(=O)(=O)c2ccc(F)cc2)c2ccc(C(=O)O)cc12 |

Continued, molecule first:

| Compound | Kb (Thromboxane A2 receptor [1]) [nM] | pIC50 (Thromboxane-A synthase) | Kb (Thromboxane A2 receptor [2]) [nM] | Kb (Thromboxane A2 receptor [3]) [nM] | inhibition [4] [%] |
| --- | --- | --- | --- | --- | --- |
| Cc1c(Cc2cccnc2)c2cc(CCC(=O)O)ccc2n1CCNS(=O)(=O)c1ccc(F)cc1 | 0.692 | 7.21 | – | – | – |
| Cc1c(Cn2ccnc2)n(CCNS(=O)(=O)c2ccc(F)cc2)c2ccc(C(=O)O)cc12 | – | 7.70 | – | > 1000 | – |
| Cc1c(Cc2ccncc2)c2cc(CCC(=O)O)ccc2n1CCNS(=O)(=O)c1ccc(F)cc1 | 0.0741 | 7.11 | – | – | – |
| Cc1c(Cn2ccnc2)n(CCCNS(=O)(=O)c2ccc(F)cc2)c2ccc(C(=O)O)cc12 | – | 7.82 | – | > 1000 | – |
| Cc1c(Cn2ccnc2)n(CCNS(=O)(=O)c2ccc(F)cc2)c2ccc(CCC(=O)O)cc12 | 138 | 6.87 | – | – | – |
